Data taken from patent US20240360194A1, “New Peptides as Potent and Selective GIP Receptor Agonists” (Sanofi, priority 2021, published 2024).
pEC50, pIC50: −log10 of the molar value. Numbered stars: 1 amine (or outer) side, 2 acyl side, 3 side chain; on linkers, the order of the positions; unused ones are H or OH. Square brackets hold non-standard residues; d marks the D form. Side chains are listed from the residue outwards. Peptide text beside a SMILES is read from it. * marks the point of attachment. C18 diacid = O=C(O)CCCCCCCCCCCCCCCCC(=O)*; γGlu = O=C(O)[C@H](CCC(=O)[*:2])N[*:1]; AEEA = NCCOCCOCC(=O)O; Aib = CC(C)(N)C(=O)O

Tests used:
[1] = ThT assay for the assessment of physical stability (fibrillation); format: physicochemical; conditions: ThT buffer system A: 100 mM phosphate buffer pH 7.4; 3 mg/ml, 37° C., shaking
From the text: Low physical stability of a peptide solution may lead to amyloid fibril formation, which is observed as well-ordered, thread-like macromolecular structures in the sample, which eventually may lead to gel formation. Thioflavin T (ThT) is widely used to visualize and quantify the presence of misfolded protein aggregates [Biancalana et al., Biochim. Biophys. Acta 2010, 1804(7), 1405]. […] Enzymol. 1999, 309, 274]. The time course for fibril formation often follows the characteristic shape of a sigmoidal curve and can be separated into three regions: a lag phase, a fast growth phase, and a plateau phase. The typical fibril formation process starts with the lag phase in which the amount of partially folded peptide turned into fibrils is not significant enough to be detected. The lag-time corresponds to the time the critical mass of the nucleus is built. Afterwards, a drastic elongation phase follows, and fibril concentration increases rapidly. Investigations were carried out to determine fibrillation tendencies under stress conditions by shaking at 37° C. within Fluoroskan Ascent FL or Fluoroskan Ascent. For the tests in Fluoroskan Ascent (FL), 200 μl sample were placed into a 96-well mictrotiter plate PS, flat bottom, Greiner Fluotrac No. 655076. Plates were sealed with Scotch Tape (Qiagen). Samples were stressed by continuous cycles of 10 sec shaking at 960 rpm and 50 sec rest period at 37° C. The kinetic was monitored by measuring fluorescence intensity every 20 min. Peptides were diluted in a buffer system to a final concentration of 3 mg/ml. 20 μl of a 10.1 mM ThT solution in H2O were added to 2 ml of peptide solution to receive a final concentration of 100 μM ThT. For each sample eight replicates were tested. • ThT buffer system A) 100 mM phosphate buffer pH 7.4 • ThT buffer system B) 100 mM phosphate buffer pH 7.4, 2.7 mg/ml m-cresol Lag time in hours (h) in Thioflavin T (ThT) assay of peptide samples was determined in ThT buffer system A as described in Methods.

human GIP receptor = target: T1, human GIP receptor (Homo sapiens, UniProt P48546); test: In vitro cellular cAMP assay for GIP receptor efficacy (human adipocytes); format: cell-based; conditions: for pEC50: read-out: hGIPR EC50; for Emax: read-out: hGIPR Emax
T1 construct: human adipocytes endogenously expressing the human GIP receptor; host or cells: human preadipocytes (Lonza) differentiated to adipocytes
T1 sequence (P48546 22-466): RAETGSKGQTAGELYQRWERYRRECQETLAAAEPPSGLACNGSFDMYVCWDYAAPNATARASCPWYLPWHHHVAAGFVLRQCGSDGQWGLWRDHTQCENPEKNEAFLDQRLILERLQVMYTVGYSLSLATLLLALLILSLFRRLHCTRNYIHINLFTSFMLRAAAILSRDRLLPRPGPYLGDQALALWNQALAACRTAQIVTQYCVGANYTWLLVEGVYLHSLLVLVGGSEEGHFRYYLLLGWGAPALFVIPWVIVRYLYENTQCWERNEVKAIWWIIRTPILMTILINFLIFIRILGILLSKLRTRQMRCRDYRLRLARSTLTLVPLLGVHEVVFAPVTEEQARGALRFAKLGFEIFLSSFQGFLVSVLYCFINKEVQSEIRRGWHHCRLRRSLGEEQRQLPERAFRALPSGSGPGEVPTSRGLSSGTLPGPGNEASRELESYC
Summary of the method: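 Human preadipocytes expanded, then differentiated 6 days (insulin, dexamethasone, PPARγ agonist, 200 μM IBMX, L-thyroxine) before plating at 5000 cells/well. Test compound applied 30 min at room temperature; cAMP measured by HTRF after 1 h with lysis-buffer reagents, read as 665/620 nm fluorescence ratio.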

[2] = target: T2, human GIP receptor (hGIPR) (Homo sapiens, UniProt P48546); test: Binding assay, displacement of [125I]GIP from HEK-293 membranes over-expressing GIPR (SPA); conditions: [125I]GIP displacement
T2 sequence (P48546 22-466): T1 sequence (P48546 22-466)
Summary of the method: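 Membranes from HEK-293 cells over-expressing human GIPR or GLP-1R, isolated by homogenising, sonicating and ultracentrifuging at 100000×g into HEPES/EDTA/NaCl buffer with protease inhibitors, were used for binding.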

| SMILES | Increase in FI [1] | Lag time before increase [1] [h] | pEC50 (human GIP receptor) | Emax (human GIP receptor) [%] | pIC50 [2] |
| --- | --- | --- | --- | --- | --- |
| CC[C@H](C)[C@H](NC(=O)[C@H](Cc1ccccc1)NC(=O)[C@H](CCC(=O)O)NC(=O)[C@H](CCC(=O)O)NC(=O)[C@H](CCC(N)=O)NC(=O)[C@H](Cc1c[nH]cn1)NC(=O)[C@@H](NC(=O)[C@H](CCCNC(=N)N)NC(=O)[C@H](CC(=O)O)NC(=O)[C@H](CCCCNC(=O)COCCOCCNC(=O)COCCOCCNC(=O)CC[C@H](NC(=O)CCCCCCCCCCCCCCCCC(=O)O)C(=O)O)NC(=O)C(C)(C)NC(=O)[C@@H](NC(=O)[C@H](CO)NC(=O)[C@H](CC(C)C)NC(=O)[C@H](CC(=O)O)NC(=O)[C@H](CO)NC(=O)[C@@H](NC(=O)[C@@](C)(CC)NC(=O)[C@@H](NC(=O)CNC(=O)[C@H](CCC(=O)O)NC(=O)C(C)(C)NC(=O)[C@@H](N)Cc1ccc(O)cc1)[C@@H](C)O)[C@@H](C)CC)[C@@H](C)CC)[C@@H](C)CC)C(=O)N[C@@H](CCC(=O)O)C(=O)N[C@@H](Cc1c[nH]c2ccccc12)C(=O)N[C@@H](CC(C)C)C(=O)N[C@@H](CC(C)C)C(=O)N[C@@H](C)C(=O)N[C@@H](CCC(N)=O)C(=O)N[C@@H](CCCNC(=N)N)C(=O)NCC(N)=O [SEQ ID NO: 15, H2N-Y-Aib-E-G-T-Iva-I-S-D-L-S-I-Aib-K[{AEEA}2-gGlu-C18OH]-D-R-I-H-Q-E-E-F-I-E-W-L-L-A-Q-R-G-NH2] | no | >45 | 9.10 | 109 | 9.70 |
| CC[C@H](C)[C@H](NC(=O)[C@H](CCCNC(=N)N)NC(=O)[C@H](CC(=O)O)NC(=O)[C@H](CCCCNC(=O)COCCOCCNC(=O)COCCOCCNC(=O)CC[C@H](NC(=O)CCCCCCCCCCCCCCCCC(=O)O)C(=O)O)NC(=O)C(C)(C)NC(=O)[C@@H](NC(=O)[C@H](CO)NC(=O)[C@H](CC(C)C)NC(=O)[C@H](CC(=O)O)NC(=O)[C@H](CO)NC(=O)[C@@H](NC(=O)[C@H](Cc1ccccc1)NC(=O)[C@@H](NC(=O)CNC(=O)[C@H](CCC(=O)O)NC(=O)C(C)(C)NC(=O)[C@@H](N)Cc1ccc(O)cc1)[C@@H](C)O)[C@@H](C)CC)[C@@H](C)CC)C(=O)N[C@@H](Cc1c[nH]cn1)C(=O)N[C@@H](CCC(N)=O)C(=O)NC(C)(C)C(=O)N[C@@H](CCC(=O)O)C(=O)N[C@@H](Cc1ccccc1)C(=O)N[C@H](C(=O)N[C@@H](CCC(=O)O)C(=O)N[C@@H](Cc1c[nH]c2ccccc12)C(=O)N[C@@H](CC(C)C)C(=O)N[C@@H](CC(C)C)C(=O)N[C@@H](C)C(=O)N[C@@H](CCC(N)=O)C(=O)N[C@@H](CCC(=O)O)C(=O)NCC(N)=O)[C@@H](C)CC [SEQ ID NO: 12, H2N-Y-Aib-E-G-T-F-I-S-D-L-S-I-Aib-K[{AEEA}2-gGlu-C18OH]-D-R-I-H-Q-Aib-E-F-I-E-W-L-L-A-Q-E-G-NH2] | no | >45 | 9.30 | 112 | 9.30 |
| CC[C@H](C)[C@H](NC(=O)[C@H](CCCNC(=N)N)NC(=O)[C@H](CCC(=O)O)NC(=O)[C@H](CCCCNC(=O)COCCOCCNC(=O)COCCOCCNC(=O)CC[C@H](NC(=O)CCCCCCCCCCCCCCCCC(=O)O)C(=O)O)NC(=O)C(C)(C)NC(=O)[C@@H](NC(=O)[C@H](CO)NC(=O)[C@H](CC(C)C)NC(=O)[C@H](CC(=O)O)NC(=O)[C@H](CO)NC(=O)[C@@H](NC(=O)[C@H](Cc1ccccc1)NC(=O)[C@@H](NC(=O)CNC(=O)[C@H](CCC(=O)O)NC(=O)C(C)(C)NC(=O)[C@@H](N)Cc1ccc(O)cc1)[C@@H](C)O)[C@@H](C)CC)[C@@H](C)CC)C(=O)N[C@@H](Cc1c[nH]cn1)C(=O)N[C@@H](CCC(N)=O)C(=O)NC(C)(C)C(=O)N[C@@H](CCC(=O)O)C(=O)N[C@@H](Cc1ccccc1)C(=O)N[C@H](C(=O)N[C@@H](CCC(=O)O)C(=O)N[C@@H](Cc1c[nH]c2ccccc12)C(=O)N[C@@H](CC(C)C)C(=O)N[C@@H](CC(C)C)C(=O)N[C@@H](C)C(=O)N[C@@H](CCC(N)=O)C(=O)NCC(=O)N1CCC[C@H]1C(=O)N[C@@H](CO)C(=O)N[C@@H](CO)C(=O)NCC(=O)N[C@@H](C)C(=O)N1CCC[C@H]1C(=O)N1CCC[C@H]1C(=O)N1CCC[C@H]1C(=O)N[C@@H](CO)C(N)=O)[C@@H](C)CC [SEQ ID NO: 21, H2N-Y-Aib-E-G-T-F-I-S-D-L-S-I-Aib-K[{AEEA}2-gGlu-C18OH]-E-R-I-H-Q-Aib-E-F-I-E-W-L-L-A-Q-G-P-S-S-G-A-P-P-P-S-NH2] (H-Y[Aib]EGTFISDLSI[Aib]K([AEEA-AEEA-γGlu-C18 diacid])ERIHQ[Aib]EFIEWLLAQGPSSGAPPPS-NH2) | no | >45 | – | 120 | 9.10 |
| CC[C@H](C)[C@H](NC(=O)[C@H](CCCNC(=N)N)NC(=O)[C@H](CC(=O)O)NC(=O)[C@H](CCCCNC(=O)COCCOCCNC(=O)COCCOCCNC(=O)CC[C@H](NC(=O)CCCCCCCCCCCCCCCCC(=O)O)C(=O)O)NC(=O)C(C)(C)NC(=O)[C@@H](NC(=O)[C@H](CO)NC(=O)[C@H](CC(C)C)NC(=O)[C@H](CC(=O)O)NC(=O)[C@H](CO)NC(=O)[C@@H](NC(=O)[C@H](Cc1ccccc1)NC(=O)[C@@H](NC(=O)CNC(=O)[C@H](CCC(=O)O)NC(=O)C(C)(C)NC(=O)[C@@H](N)Cc1ccc(O)cc1)[C@@H](C)O)[C@@H](C)CC)[C@@H](C)CC)C(=O)N[C@@H](Cc1c[nH]cn1)C(=O)N[C@@H](CCC(N)=O)C(=O)NC(C)(C)C(=O)N[C@@H](CCC(=O)O)C(=O)N[C@@H](Cc1ccccc1)C(=O)N[C@H](C(=O)N[C@@H](CCC(=O)O)C(=O)N[C@@H](Cc1c[nH]c2ccccc12)C(=O)N[C@@H](CC(C)C)C(=O)N[C@@H](CC(C)C)C(=O)N[C@@H](C)C(=O)N[C@@H](CCC(N)=O)C(=O)N[C@@H](CCCNC(=N)N)C(=O)NCC(N)=O)[C@@H](C)CC [SEQ ID NO: 6, H2N-Y-Aib-E-G-T-F-I-S-D-L-S-I-Aib-K[{AEEA}2-gGlu-C18OH]-D-R-I-H-Q-Aib-E-F-I-E-W-L-L-A-Q-R-G-NH2] | no | >45 | 9.00 | 121 | 9.30 |
| CC[C@H](C)[C@H](NC(=O)[C@H](Cc1ccccc1)NC(=O)[C@H](CCC(=O)O)NC(=O)C(C)(C)NC(=O)[C@H](CCC(N)=O)NC(=O)[C@H](Cc1c[nH]cn1)NC(=O)C(C)(C)NC(=O)[C@H](CCCNC(=N)N)NC(=O)[C@H](CC(=O)O)NC(=O)[C@H](CCCCNC(=O)COCCOCCNC(=O)COCCOCCNC(=O)CC[C@H](NC(=O)CCCCCCCCCCCCCCCCC(=O)O)C(=O)O)NC(=O)C(C)(C)NC(=O)[C@@H](NC(=O)[C@H](CO)NC(=O)[C@H](CC(C)C)NC(=O)[C@H](CC(=O)O)NC(=O)[C@H](CO)NC(=O)[C@@H](NC(=O)[C@H](Cc1ccccc1)NC(=O)[C@@H](NC(=O)CNC(=O)[C@H](CCC(=O)O)NC(=O)C(C)(C)NC(=O)[C@@H](N)Cc1ccc(O)cc1)[C@@H](C)O)[C@@H](C)CC)[C@@H](C)CC)C(=O)N[C@@H](CCC(=O)O)C(=O)N[C@@H](Cc1c[nH]c2ccccc12)C(=O)N[C@@H](CC(C)C)C(=O)N[C@@H](CC(C)C)C(=O)N[C@@H](C)C(=O)N[C@@H](CCC(N)=O)C(=O)N[C@@H](CCCNC(=N)N)C(=O)N1CCC[C@H]1C(=O)N[C@@H](CO)C(=O)N[C@@H](CO)C(=O)NCC(=O)N[C@@H](C)C(=O)N1CCC[C@H]1C(=O)N1CCC[C@H]1C(=O)N1CCC[C@H]1C(=O)N[C@@H](CO)C(N)=O [SEQ ID NO: 22, H2N-Y-Aib-E-G-T-F-I-S-D-L-S-I-Aib-K[{AEEA}2-gGlu-C18OH]-D-R-Aib-H-Q-Aib-E-F-I-E-W-L-L-A-Q-R-P-S-S-G-A-P-P-P-S-NH2] (H-Y[Aib]EGTFISDLSI[Aib]K([AEEA-AEEA-γGlu-C18 diacid])DR[Aib]HQ[Aib]EFIEWLLAQRPSSGAPPPS-NH2) | no | >45 | 9.22 | 98 | 9.00 |
